These results are taken from patent US20120328525A1, “NANOPARTICLE COMPOSITIONS AND COMPONENTS THEREOF” (priority 2011, published 2012).

The assay has as its system axillary sweating. Description: Placebo-controlled blinded clinical study, gravimetric sweat measurement (Examples 5-10). The assay is classed as in vivo, human. As to conditions: for percent of subjects with at least a 30% reduction in sweat production vs Baseline / average reduction in sweat production by gravimetric sweat measurement: two weeks after single topical treatment; for average reduction in sweat production by gravimetric sweat measurement: 0.3 mL/axilla; for greater reduction in sweat production than control (placebo) group / greater effectiveness in reducing sweat production than placebo (responder rate): two weeks after treatment; for greater reduction in sweat production than control (placebo) group: placebo 53 mg; for greater effectiveness in reducing sweat production than placebo (responder rate): placebo 29% responders. From the text:
The purpose of the study was to determine if Emulsion H is biologically active in reducing sweating. […] Some subjects received treatment with the potentially biologically active formulation and some subjects received treatment with a placebo, i.e. water. Neither the subject nor the investigator knew which treatment the subject was receiving.
Two weeks after a single treatment, subjects were re-assessed by gravimetric sweat measurement to determine the degree of sweat reduction. A comparison of post-treatment sweat production between the treatment groups was made to determine the degree of sweat reduction by the potentially biologically active formulation.
The sweat production of the subject is measured gravimetrically by the following procedure: • The subject was placed in a room with relatively constant temperature and humidity for at least 30 min. • The subject was placed in a semi-reclining position with the axilla fully exposed and the arm resting comfortably above the head. • The subject's axilla was dried gently with a cotton gauze pad. • The investigator used a forceps to place one filter paper (90 mm diameter) on a balance sensitive to 0.1 mg and recorded its weight. • The investigator used a forceps to place the measured filter paper on the axilla, covered it with plastic and taped the edges of the bag against the subject's skin with hypoallergenic tape to form a seal around the plastic bag. • After 5 minutes, the investigator gently removed the tape and plastic from the subject's axilla and then, using forceps, immediately placed the filter paper onto the scale to record its weight. The scale was then dried and zero balanced. • This measurement was then repeated as described above with the other axilla.
If the subject was eligible for treatment on this basis, the subject was then treated. For treatment, one of the study preparations (0.3 mL/axilla) was applied topically with a gloved finger by the investigator to the subject's skin of the axilla. Emulsion H contained 19.2 mg Labrafac Lipophile WL 1349 and 28.8 mg Polysorbate 80, NF, in addition to 0.9% Sodium Chloride Irrigation, USP, and Gelatin Phosphate Buffer. The average diameter (e.g., particle size) of nanoparticles contained in the Emusion H empty nanoparticle composition was approximately 80.1 nm. The preparation was administered in small increments to avoid run-off. The liquid was rubbed-in until vanished.
The subject was scheduled for a follow-up office visit two weeks after the treatment. At the follow-up office visit, the subject was questioned as to their compliance with the instructions regarding which medications not to use between treatment and the two week follow-up office visit. If the subject was non-compliant, the subject was disqualified from the study. If the subject was compliant, the subject was re-assessed using the gravimetric sweat measurement procedure.
The purpose of the study was to determine if Emulsion V is biologically active in reducing sweating. […] Some subjects received treatment with the potentially biologically active formulation and some subjects received treatment with a placebo, i.e. water. Neither the subject nor the investigator knew which treatment the subject was receiving.
If the subject was eligible for treatment on this basis, the subject was then treated. For treatment, one of the study preparations (0.3 mL/axilla) was applied topically with a gloved finger by the investigator to the subject's skin of the axilla. Emulsion V contained Emulsifying Wax, Gelatin Phosphate Buffer Solution, Isopropyl Myristate, Labrafac Lipophile, Methylparaben, Mineral Oil Heavy Viscosity Range, Polysorbate 80, Propylparaben, Purified Water, Sodium Chloride Injection, and White Petrolatum. All ingredients are either NF or USP grade. The average diameter (e.g., particle size) of nanoparticles contained in the Emusion V empty nanoparticle composition was approximately 77.1 nm. The preparation was administered in small increments to avoid run-off. […]

On to `CCCCCCCCCCCCCC(=O)OC(C)C` [Isopropyl Myristate], for which the “percent of subjects with at least a 30% reduction in sweat production vs Baseline” value came out at 55%, the “average reduction in sweat production by gravimetric sweat measurement” value (from here on “average reduction in sweat production”) is recorded as 103 mg, the “greater reduction in sweat production than control (placebo) group” value (“greater reduction” below) turned out to be 195% and the “greater effectiveness in reducing sweat production than placebo (responder rate)” value came out at 191%.

Take `CCCOC(=O)c1ccc(O)cc1` [Propylparaben]: the “percent of subjects with at least a 30% reduction in sweat production vs Baseline” value is reported as 70%, the “average reduction in sweat production” value is 177 mg, the “greater reduction” value is reported as 337% and the “greater effectiveness in reducing sweat production than placebo (responder rate)” value was 245%.

In the case of Polysorbate 80, the “percent of subjects with at least a 30% reduction in sweat production vs Baseline” value amounted to 80%, the “average reduction in sweat production” value is 159 mg, the “greater reduction” value worked out at 300% and the “greater effectiveness in reducing sweat production than placebo (responder rate)” value is on record as 280%.
